Measurements reported in ChEMBL document CHEMBL2440002, “The application of Heck reaction in the synthesis of guaianolide sesquiterpene lactones derivatives selectively inhibiting resistant acute leukemic cells” (Bioorg Med Chem Lett, 2013).

Assays:
HL-60 = experiment: Cytotoxicity against human HL60 cells after 72 hrs by MTT assay; type: functional, cell-based; conditions: HL-60, 72 h
[1] = Cytotoxicity against human HL60/A cells after 72 hrs by MTT assay; type: functional, cell-based
[2] = Induction of apoptosis in human HL60/A cells assessed as viable cells at 50 uM after 24 hrs by annexin V/propidium iodide based flow cytometry (reference value: 95.2 %); type: functional; conditions: read-out: Activity
[3] = Induction of apoptosis in human HL60/A cells assessed as early apoptotic cells at 50 uM after 24 hrs by annexin V/propidium iodide based flow cytometry (reference value: 2.66 %); type: functional
[4] = Induction of apoptosis in human HL60/A cells assessed as late apoptotic cells at 50 uM after 24 hrs by annexin V/propidium iodide based flow cytometry (reference value: 1.82 %); type: functional
[5] = Induction of apoptosis in human HL60/A cells assessed as necrotic cells at 50 uM after 24 hrs by annexin V/propidium iodide based flow cytometry (reference value: 0.282 %); type: functional
[6] = Induction of apoptosis in human HL60/A cells assessed as viable cells at 20 uM after 24 hrs by annexin V/propidium iodide based flow cytometry (reference value: 95.2 %); type: functional; conditions: read-out: Activity
[7] = Induction of apoptosis in human HL60/A cells assessed as early apoptotic cells at 20 uM after 24 hrs by annexin V/propidium iodide based flow cytometry (reference value: 2.66 %); type: functional
[8] = Induction of apoptosis in human HL60/A cells assessed as late apoptotic cells at 20 uM after 24 hrs by annexin V/propidium iodide based flow cytometry (reference value: 1.82 %); type: functional
[9] = Induction of apoptosis in human HL60/A cells assessed as necrotic cells at 20 uM after 24 hrs by annexin V/propidium iodide based flow cytometry (reference value: 0.282 %); type: functional
[10] = Induction of apoptosis in human HL60/A cells assessed as viable cells at 10 uM after 24 hrs by annexin V/propidium iodide based flow cytometry (reference value: 95.2 %); type: functional; conditions: read-out: Activity
[11] = Induction of apoptosis in human HL60/A cells assessed as late apoptotic cells at 10 uM after 24 hrs by annexin V/propidium iodide based flow cytometry (reference value: 1.82 %); type: functional
[12] = Induction of apoptosis in human HL60/A cells assessed as necrotic cells at 10 uM after 24 hrs by annexin V/propidium iodide based flow cytometry (reference value: 0.282 %); type: functional
[13] = Induction of apoptosis in human HL60/A cells assessed as early apoptotic cells at 10 uM after 24 hrs by annexin V/propidium iodide based flow cytometry (reference value: 2.66 %); type: functional

Structure (SMILES)	IC50 (HL-60)	IC50 [1]	also measured
C=C1CC[C@H]2C(=C)CC[C@H]3/C(=C\c4ccc(F)cc4)C(=O)O[C@@H]3[C@@H]12	> 50 µM	> 50 µM	
CC[Si](CC)(CC)O[C@]1(C)CCC2=C(C)CC[C@H]3/C(=C/c4ccccc4F)C(=O)O[C@@H]3[C@H]21	32 µM	7.8 µM	
CC1=C2CC[C@@](C)(O)[C@@H]2[C@H]2OC(=O)/C(=C\c3ccc(Cl)cc3)[C@@H]2CC1	> 50 µM	> 50 µM	
CC1=C2CC[C@@](C)(O)[C@@H]2[C@H]2OC(=O)/C(=C\c3ccc(F)cc3)[C@@H]2CC1	> 50 µM	> 50 µM	
CC1=C2CC[C@@](C)(O)[C@@H]2[C@H]2OC(=O)/C(=C\c3ccccc3F)[C@@H]2CC1	> 50 µM	> 50 µM	
CC1=C2CC[C@@](C)(O)[C@@H]2[C@H]2OC(=O)/C(=C\c3cccc(F)c3)[C@@H]2CC1	> 50 µM	> 50 µM	
CCc1ccc(/C=C2\C(=O)O[C@H]3[C@H]2CCC(C)=C2CC[C@@](C)(O)[C@@H]23)cc1	> 50 µM	> 50 µM	
C=C1CC[C@H]2C(=C)CC[C@H]3/C(=C\c4ccc(Cl)cc4)C(=O)O[C@@H]3[C@@H]12	> 50 µM	> 50 µM	
C=C1CC[C@H]2C(=C)CC[C@H]3/C(=C\c4ccccc4F)C(=O)O[C@@H]3[C@@H]12	> 50 µM	> 50 µM	
C=C1CC[C@H]2C(=C)CC[C@H]3/C(=C\c4cccc(C(F)(F)F)c4)C(=O)O[C@@H]3[C@@H]12	24 µM	17 µM	
C=C1CC[C@H]2C(=C)CC[C@H]3/C(=C\c4ccc(CC)cc4)C(=O)O[C@@H]3[C@@H]12	> 50 µM	> 50 µM	
C=C1CC[C@H]2C(=C)CC[C@H]3/C(=C\c4cc(OC)c(OC)c(OC)c4)C(=O)O[C@@H]3[C@@H]12	> 50 µM	> 50 µM	
C=C1CC[C@H]2C(=C)CC[C@H]3/C(=C\c4ccccc4)C(=O)O[C@@H]3[C@@H]12	> 50 µM	> 50 µM	
C=C1CC[C@H]2C(=C)CC[C@H]3/C(=C/c4ccc(Cl)cc4)C(=O)O[C@@H]3[C@@H]12	> 50 µM	> 50 µM	
C=C1CC[C@H]2C(=C)CC[C@H]3/C(=C/c4ccc(F)cc4)C(=O)O[C@@H]3[C@@H]12	> 50 µM	> 50 µM	
C=C1CC[C@H]2C(=C)CC[C@H]3/C(=C/c4ccccc4F)C(=O)O[C@@H]3[C@@H]12	> 50 µM	> 50 µM	
C=C1CC[C@H]2C(=C)CC[C@H]3/C(=C/c4cccc(C(F)(F)F)c4)C(=O)O[C@@H]3[C@@H]12	> 50 µM	> 50 µM	
C=C1CC[C@H]2C(=C)CC[C@H]3/C(=C/c4ccc(CC)cc4)C(=O)O[C@@H]3[C@@H]12	> 50 µM	> 50 µM	

Structure (SMILES)	IC50 (HL-60)	IC50 [1]	also measured
C=C1CC[C@H]2C(=C)CC[C@H]3/C(=C/c4cc(OC)c(OC)c(OC)c4)C(=O)O[C@@H]3[C@@H]12	> 50 µM	> 50 µM	
C=C1CC[C@H]2C(=C)CC[C@H]3/C(=C/c4ccccc4)C(=O)O[C@@H]3[C@@H]12	> 50 µM	> 50 µM	
C=C1C(=O)O[C@H]2[C@H]1CCC(C)=C1CC[C@@](C)(O[Si](CC)(CC)CC)[C@@H]12	8.4 µM	7.2 µM	
CC[Si](CC)(CC)O[C@]1(C)CCC2=C(C)CC[C@H]3/C(=C\c4ccc(Cl)cc4)C(=O)O[C@@H]3[C@H]21	> 50 µM	> 50 µM	
CC[Si](CC)(CC)O[C@]1(C)CCC2=C(C)CC[C@H]3/C(=C\c4ccc(F)cc4)C(=O)O[C@@H]3[C@H]21	> 50 µM	> 50 µM	
CC[Si](CC)(CC)O[C@]1(C)CCC2=C(C)CC[C@H]3/C(=C\c4ccccc4F)C(=O)O[C@@H]3[C@H]21	> 50 µM	> 50 µM	
CC[Si](CC)(CC)O[C@]1(C)CCC2=C(C)CC[C@H]3/C(=C\c4cccc(F)c4)C(=O)O[C@@H]3[C@H]21	> 50 µM	> 50 µM	
CCc1ccc(/C=C2/C(=O)O[C@H]3[C@H]2CCC(C)=C2CC[C@@](C)(O[Si](CC)(CC)CC)[C@@H]23)cc1	45 µM	9.2 µM	
CC[Si](CC)(CC)O[C@]1(C)CCC2=C(C)CC[C@H]3/C(=C/c4ccc(Cl)cc4)C(=O)O[C@@H]3[C@H]21	> 50 µM	> 50 µM	
CC[Si](CC)(CC)O[C@]1(C)CCC2=C(C)CC[C@H]3/C(=C/c4ccc(F)cc4)C(=O)O[C@@H]3[C@H]21	> 50 µM	> 50 µM	
CC[Si](CC)(CC)O[C@]1(C)CCC2=C(C)CC[C@H]3/C(=C/c4cccc(F)c4)C(=O)O[C@@H]3[C@H]21	52 µM	10 µM	
CCc1ccc(/C=C2\C(=O)O[C@H]3[C@H]2CCC(C)=C2CC[C@@](C)(O[Si](CC)(CC)CC)[C@@H]23)cc1	> 50 µM	19 µM	
CC1=C2CC[C@@](C)(O)[C@@H]2[C@H]2OC(=O)/C(=C/c3ccc(Cl)cc3)[C@@H]2CC1	> 50 µM	> 50 µM	
CC1=C2CC[C@@](C)(O)[C@@H]2[C@H]2OC(=O)/C(=C/c3ccc(F)cc3)[C@@H]2CC1	> 50 µM	> 50 µM	
CC1=C2CC[C@@](C)(O)[C@@H]2[C@H]2OC(=O)/C(=C/c3ccccc3F)[C@@H]2CC1	> 50 µM	> 50 µM	
CC1=C2CC[C@@](C)(O)[C@@H]2[C@H]2OC(=O)/C(=C/c3cccc(F)c3)[C@@H]2CC1	> 50 µM	32 µM	
CCc1ccc(/C=C2/C(=O)O[C@H]3[C@H]2CCC(C)=C2CC[C@@](C)(O)[C@@H]23)cc1	31 µM	6.2 µM	viability at 50 µM [2]: 0.94%; Activity [3]: 1.5%; Activity [4]: 85.9%; Activity [5]: 11.7%; viability at 20 µM [6]: 66%; Activity [7]: 4.66%; Activity [8]: 23.8%; Activity [9]: 5.51%; viability at 10 µM [10]: 89.2%; Activity [11]: 6.61%; Activity [12]: 1.03%; Activity [13]: 3.14%
COc1cccc2c1C(=O)c1c(O)c3c(c(O)c1C2=O)C[C@@](O)(C(=O)CO)C[C@@H]3O[C@H]1C[C@H](N)[C@H](O)[C@H](C)O1 [DOXORUBICIN]	0.07 µM	7.8 µM	
